The source of these data is ChEMBL document CHEMBL1132837, “3-(4-Piperidinyl)- and 3-(8-aza-bicyclo[3.2.1]oct-3-yl)-2-phenyl-1H-indoles as bioavailable h5-HT2A antagonists” (Bioorg Med Chem Lett, 2000).

In general, Ki refers to a dissociation constant, usually derived from enzyme kinetics or from competition with a known ligand. Low readings indicate tighter binding, high ones weaker binding.

The target in data set [1] is Serotonin 2 receptors; 5-HT2a & 5-HT2c (Homo sapiens) (UniProt P28223+P28335). Put plainly: Selectivity as ratio of Ki against human 5-HT2C and 5-HT2A receptors. Type of data set: protein assay.
Chain of Serotonin 2 receptors; 5-HT2a & 5-HT2c (Homo sapiens) (P28223 whole entry, looked up): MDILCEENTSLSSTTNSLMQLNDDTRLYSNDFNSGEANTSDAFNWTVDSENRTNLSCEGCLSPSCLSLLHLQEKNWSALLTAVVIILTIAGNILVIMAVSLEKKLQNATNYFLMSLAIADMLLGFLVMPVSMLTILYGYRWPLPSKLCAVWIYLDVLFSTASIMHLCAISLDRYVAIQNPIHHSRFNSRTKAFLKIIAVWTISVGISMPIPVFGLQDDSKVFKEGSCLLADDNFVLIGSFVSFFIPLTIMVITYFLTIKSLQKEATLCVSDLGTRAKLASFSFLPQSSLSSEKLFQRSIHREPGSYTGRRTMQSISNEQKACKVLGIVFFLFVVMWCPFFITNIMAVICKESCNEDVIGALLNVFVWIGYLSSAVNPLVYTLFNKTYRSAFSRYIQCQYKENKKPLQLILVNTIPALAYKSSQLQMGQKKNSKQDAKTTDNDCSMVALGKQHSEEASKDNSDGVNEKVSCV
Chain of Serotonin 2 receptors; 5-HT2a & 5-HT2c (Homo sapiens) (P28335 whole entry, looked up): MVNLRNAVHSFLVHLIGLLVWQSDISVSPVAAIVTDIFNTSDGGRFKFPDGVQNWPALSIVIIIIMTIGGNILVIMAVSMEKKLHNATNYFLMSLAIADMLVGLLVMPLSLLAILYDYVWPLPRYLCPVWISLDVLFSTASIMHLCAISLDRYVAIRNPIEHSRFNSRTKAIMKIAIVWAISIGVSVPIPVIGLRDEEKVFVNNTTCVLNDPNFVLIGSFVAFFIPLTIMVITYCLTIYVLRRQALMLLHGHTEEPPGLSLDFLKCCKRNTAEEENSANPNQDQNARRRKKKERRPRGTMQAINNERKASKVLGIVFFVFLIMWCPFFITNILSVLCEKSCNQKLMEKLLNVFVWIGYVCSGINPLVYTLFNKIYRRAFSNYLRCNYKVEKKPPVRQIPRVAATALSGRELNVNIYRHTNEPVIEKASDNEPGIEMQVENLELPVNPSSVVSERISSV
The target in data set [2] is Dopamine D2 receptor and serotonin 2a receptor (Homo sapiens) (UniProt P14416+P28223). Put plainly: Selectivity as ratio of Ki against human dopamine D2 and 5-HT2A receptors. Type of data set: protein assay.
Chain of Dopamine D2 receptor and serotonin 2a receptor (Homo sapiens) (P14416 whole entry, looked up): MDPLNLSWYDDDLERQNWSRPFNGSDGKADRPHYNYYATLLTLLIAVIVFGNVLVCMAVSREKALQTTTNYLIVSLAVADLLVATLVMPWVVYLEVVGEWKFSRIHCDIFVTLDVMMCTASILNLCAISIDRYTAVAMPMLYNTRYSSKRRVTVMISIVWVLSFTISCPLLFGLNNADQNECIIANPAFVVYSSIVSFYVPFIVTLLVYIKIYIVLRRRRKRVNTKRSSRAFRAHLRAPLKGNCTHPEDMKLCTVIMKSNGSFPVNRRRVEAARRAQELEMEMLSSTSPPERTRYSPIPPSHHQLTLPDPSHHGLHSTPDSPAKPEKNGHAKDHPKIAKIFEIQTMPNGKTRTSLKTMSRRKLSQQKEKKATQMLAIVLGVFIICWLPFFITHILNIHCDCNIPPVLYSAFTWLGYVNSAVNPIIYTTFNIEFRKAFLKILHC
Chain of Dopamine D2 receptor and serotonin 2a receptor (Homo sapiens) (P28223 whole entry, looked up): as the sequence (P28223 whole entry, looked up) above
Data set [3] addresses 5-hydroxytryptamine receptor 2A (Homo sapiens, UniProt P28223). Put plainly: Displacement of [3H]ketanserin from human 5-hydroxytryptamine 2A receptor expressed in CHO cells. Type of data set: cell-based. (In a radioligand displacement assay an active substance lowers the binding of a labelled ligand.)
The nature of data set [4]: Oral bioavailability in rat. Type of data set: ADME, organism-based. Particulars: in vivo.
Data set [5] is described as follows: Oral bioavailability was determined in dogs. Format: ADME, organism-based, Canis lupus familiaris. Particulars: dog, in vivo, read-out: Bioavailabiility.

Where only a bound is given, the exact number is not on record here.

Chain of 5-hydroxytryptamine receptor 2A (P28223 whole entry): as the sequence (P28223 whole entry, looked up) above

On to `c1ccc(-c2[nH]c3ccccc3c2C2CCNCC2)cc1`, for which the Ratio in data set [1] came out at 30; in data set [2], 130. Moreover, the inhibition constant Ki in data set [3] was 12.1 nM.
In turn, `CN1[C@@H]2CC[C@H]1C[C@H](N1CCC(c3c(-c4ccccc4)[nH]c4ccccc34)CC1)C2` (stereo in doubt; 15) [listing 1 of 2 here] came in with a Ki in data set [3] of 1.5 nM.
Still for that read-out and setting: the result for `c1ccc(CCN2C3CCC2CC(N2CCC(c4c(-c5ccccc5)[nH]c5ccccc45)CC2)C3)cc1` (stereo in doubt; 18) [listing 1 of 2 here] reads 2.6 nM; that for `CN1[C@@H]2CC[C@H]1C[C@H](N1CCC(c3c(-c4ccccc4)[nH]c4ccccc34)CC1)C2` (stereo in doubt; 13) [listing 1 of 2 here], 1.1 nM.
The compound `c1ccc(CCN2C3CCC2CC(N2CCC(c4c(-c5ccccc5)[nH]c5ccccc45)CC2)C3)cc1` (stereo in doubt; 17) [listing 1 of 2 here] had a bioavailability in data set [4] of 18%. The compound also came in with a Ki in data set [3] of 1.2 nM.
`CN1[C@@H]2CC[C@H]1C[C@H](N1CCC(c3c(-c4ccccc4)[nH]c4ccccc34)CC1)C2` (stereo in doubt; 15) [listing 2 of 2 here]: the Ratio in data set [1] was determined as 45; in data set [2], 960.
For the compound `CN1CCC(c2c(-c3ccccc3)[nH]c3ccccc23)CC1`, the Ratio in data set [1] was found to be 30; in data set [2], 205. This compound also registered a Ki in data set [3] of 7.8 nM.
As for `c1ccc(CCN2C3CCC2CC(N2CCC(c4c(-c5ccccc5)[nH]c5ccccc45)CC2)C3)cc1` (stereo in doubt; 17) [listing 2 of 2 here], the Ratio is 860 in data set [1] and 1080 in data set [2].
`c1ccc(-c2[nH]c3ccccc3c2CCN2CCCCC2)cc1`: the Ratio in data set [1] amounted to 100; in data set [2], 330. The compound also yielded a bioavailability in data set [4] of under 5%.
For the compound `c1ccc(CCN2C3CCC2CC(N2CCC(c4c(-c5ccccc5)[nH]c5ccccc45)CC2)C3)cc1` (stereo in doubt; 18) [listing 2 of 2 here], the Ratio in data set [1] was found to be 60; in data set [2], 170.
For `c1ccc(-c2[nH]c3ccccc3c2C2CC3CCC(C2)N3)cc1` (configuration not stated), the Ratio worked out at 200 in data set [1] and 1060 in data set [2]. For the same compound, the inhibition constant Ki in data set [3] worked out at 1.8 nM.
`c1ccc(CCN2CCC(c3c(-c4ccccc4)[nH]c4ccccc34)CC2)cc1`: the Ratio came to 160 in data set [1] and 690 in data set [2]. Further, in data set [4], the bioavailability came to 12%. The Ki in data set [3] stood at 0.5 nM.
For `c1ccc(CN2CCC(c3c(-c4ccccc4)[nH]c4ccccc34)CC2)cc1`, the Ratio in data set [1] amounted to 30; in data set [2], 2. The compound further displayed a Ki in data set [3] of 28 nM.
Consider `O=C1NCCN1CCN1CCC(c2c(-c3ccccc3)[nH]c3ccccc23)CC1`, for which the results for the Ratio in data set [1] and in data set [2] were 160 and 250, respectively. Also, the bioavailability stood at 40% in data set [4] and 33% in data set [5]. In data set [3], this compound yielded a Ki of 7.3 nM.
For the compound `CN1[C@@H]2CC[C@H]1C[C@H](N1CCC(c3c(-c4ccccc4)[nH]c4ccccc34)CC1)C2` (stereo in doubt; 13) [listing 2 of 2 here], the Ratio in data set [1] was 70; in data set [2], 1190.
